Laboratory results as given in patent US20210355104A1, “ADENOSINE RECEPTOR BINDING COMPOUNDS” (Nikang Therapeuticsm Inc., priority 2018, published 2021).
Values joined by “and” are separate entries in the source; they are usually repeats but may differ in a detail not shown here. Identical values can stand only once. Like-named read-outs stand apart in the source and are kept apart here.

How the values were obtained:
[1] = target: Adenosine A2A receptor (Homo sapiens, UniProt P29274); test: cAMP assay in 293A cells stably expressing the adenosine A2A receptor (CGS21680 stimulation, HTRF); format: cell-based; parameters: expressed in transfected cells; host or cells: 293A cells (Invitrogen, Cat# R705-07) infected with A2A-expressing lentivirus (custom packaged by Biosettia), puromycin selected; conditions: 0.1% BSA
[2] = test system: p-CREB (phosphorylated cAMP response-element binding protein) in human whole blood; test: p-CREB assay in human whole blood by flow cytometry (NECA stimulation, CD4 staining); format: cell-based
Procedure: Assay protocol for p-CREB (phosphorylated cAMP response-element binding protein) in human whole blood by flow cytometry
Fresh human whole blood (Biological Specialty Corporation) was added at 100 ul per wellinto a 96-well plate and treated with test compounds (Serial dilutions of 1:3 with starting concentration at 30 uM, 11 concentrations total, in the presence of adenosine deaminase) for one hour at room temperature on a plate shaker. Then 10 ul of 10× NECA (50 uM stock in PBS) and 10 ul of 10 × Rolipram (50 uM stock in PBS) were added, with designated wells for unstimulated (Rolipram+DMSO) and stimulated (Rolipram+NECA+DMSO) conditions. The plates were mixed well and incubated at room temperature for 30 min on a plate shaker. 1× lyse/Fix buffer (5× stock, BD #558049) was warmed to 37° in a water bath. 1200 ul of pre-warmed 1× lyse/Fix buffer was then added to the plate, which was then sealed and mixed by inverting the plate a few times. The plate was then incubated for 30 min at 37° in a water bath. After incubation, the plate was centrifuged at 1600 rpm for 5 min and the supernatant was decanted, then 1200 ul PBS was added and the plate was mixed by inverting a few times followed by centrifuging at 1600 rpm for 5 min and again decanting the supernatant. Then, 200 ul FIX PERM buffer II (BD #558052) was added and the plate was mixed well, then kept on ice for 45 min After spinning the plate at 1600 rpm for 5 min the supernatant was again decanted. Then was added 200 ul staining buffer (BD #554657), and the plate was mixed well and spun at 1600 rpm for 5 min, then the supernatant was again decanted. 200 ul staining buffer was added, the plate was mixed well and the plate was sealed at this step for storage at 4° overnight or until staining. Before staining, the plate was spun at 1600 rpm for 5 min and the supernatant was again decanted. Antibody mix in staining buffer was prepared (75 ul/well, 1:50 dilution for p-CREB antibody from Cell Signaling Tech #14001S, 1:200 dilution for CD4 antibody from BD #566320) and the cells were resuspended in the above antibody mix solution. After mixing well, the plate was incubated (shielded from light) at room temperature for two hours on a plate shaker. It was then spun at 1600 rpm for 5 min and the supernatant was decanted. 200 ul staining buffer was then added to wash cells, and the plate was then mixed by shaking or pipetting. The wash step was repeated at least one more time, and after the final wash, cells were resusptended in 200 ul staining buffer in U bottom plate for flow cytometry analysis.

[3] = 293A cells stably expressing A2A receptor, 1 uM CGS21680 stimulation, replicate values separated by /, read-out: cAMP (nM) 0.1% BSA, 1 uM CGS
[4] = Homo sapiens, replicate values separated by /
[5] = 293A-A2AR cells, 1 uM CGS, read-out: cAMP (nM) 0.1% BSA, 1 uM CGS

Chain of Adenosine A2A receptor (P29274 whole entry): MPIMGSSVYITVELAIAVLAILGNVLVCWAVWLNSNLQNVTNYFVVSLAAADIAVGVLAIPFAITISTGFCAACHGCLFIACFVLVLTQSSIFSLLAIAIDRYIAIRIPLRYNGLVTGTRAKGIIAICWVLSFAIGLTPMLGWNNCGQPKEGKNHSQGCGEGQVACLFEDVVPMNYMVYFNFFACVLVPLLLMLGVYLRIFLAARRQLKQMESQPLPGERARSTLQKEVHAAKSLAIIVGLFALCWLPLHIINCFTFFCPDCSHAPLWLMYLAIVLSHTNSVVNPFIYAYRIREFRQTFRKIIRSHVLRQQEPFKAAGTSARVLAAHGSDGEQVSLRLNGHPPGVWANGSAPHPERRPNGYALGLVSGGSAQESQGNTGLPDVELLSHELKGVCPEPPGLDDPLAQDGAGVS

For `Cc1cc(-c2c(OCc3cccc(C4(CCO)CCOC4=O)n3)nc(N)nc2-c2ccc(F)cc2)cc(C(F)F)n1` (stereo not drawn) [Example 439, 3-(6-(((2-amino-5-(2-(difluoromethyl)-6-methylpyridin-4-yl)-6-(4-fluorophenyl)pyrimidin-4-yl)oxy)methyl)pyridin-2-yl)-3-(2-hydroxyethyl)dihydrofuran-2(3H)-one], the IC50 [1, 3] was 103 nM and the IC50 [2, 4] was 252 nM.

Compound `CNC(=O)CNCc1cccc(COc2nc(N)nc(-c3ccc(F)cc3)c2-c2cc(C)nc(C(F)F)c2)n1` [Example 440, 2-(((6-(((2-amino-5-(2-(difluoromethyl)-6-methylpyridin-4-yl)-6-(4-fluorophenyl)pyrimidin-4-yl)oxy)methyl)pyridin-2-yl)methyl)amino)-N-methylacetamide] has an IC50 [1, 3] of 215 nM and an IC50 [2, 4] of 95 nM.

With `Cc1cc(-c2c(OCc3cccc(CNCCO)n3)nc(N)nc2-c2ccc(F)cc2)cc(C(F)F)n1` [Example 418, 2-(((6-(((2-amino-5-(2-(difluoromethyl)-6-methylpyridin-4-yl)-6-(4-fluorophenyl)pyrimidin-4-yl)oxy)methyl)pyridin-2-yl)methyl)amino)ethan-1-ol] the IC50 [1, 3] was 191 nM and 177 nM and the IC50 [2, 4] was 89.3 nM.

For `Cc1cc(-c2c(OCCN3CCCc4cccnc43)nc(N)nc2-c2ccc(F)cc2)cc(C(F)F)n1` [Example 408, 5-(2-(difluoromethyl)-6-methylpyridin-4-yl)-4-(2-(3,4-dihydro-1,8-naphthyridin-1 (2H)-yl)ethoxy)-6-(4-fluorophenyl)pyrimidin-2-amine], the IC50 [1, 3] was 68 nM and 41 nM and 19 nM and 74 nM and the IC50 [2, 4] was 37.9 nM.

With `COC(=O)NCc1cccc(COc2nc(N)nc(-c3ccc(F)cc3)c2-c2cc(C)nc(C(F)F)c2)n1` [Example 410, methyl((6-(((2-amino-5-(2-(difluoromethyl)-6-methylpyridin-4-yl)-6-(4-fluorophenyl)pyrimidin-4-yl)oxy)methyl)pyridin-2-yl)methyl)carbamate] the IC50 [1, 3] was 97 nM and 142 nM and 124 nM and 178 nM and the IC50 [2, 4] was 20 nM.

For `Cc1cc(-c2c(OCCN(C)c3cccc(C(C)(C)C(=O)O)n3)nc(N)nc2-c2ccc(F)cc2)cc(C(F)F)n1` [Example 339, 2-(6-((2-((2-amino-5-(2-(difluoromethyl)-6-methylpyridin-4-yl)-6-(4-fluorophenyl)pyrimidin-4-yl)oxy)ethyl)(methyl)amino)pyridin-2-yl)-2-methylpropanoic acid], the IC50 [1, 5] was 561 nM and 795 nM and 230 nM and the IC50 ([2]; Homo sapiens) was 166 nM.

Work on `Cc1cc(-c2c(OCc3cccc(OCCO)n3)nc(N)nc2-c2ccc(F)cc2)cc(C(F)F)n1` [Example 305] yielded an IC50 [1, 5] of 196 nM and an IC50 ([2]; Homo sapiens) of 61.7 nM.

With `Cc1cc(-c2c(OCc3nccs3)nc(N)nc2-c2ccc(F)cc2)cc(C(F)F)n1` [Example 350, 5-(2-(difluoromethyl)-6-methylpyridin-4-yl)-4-(4-fluorophenyl)-6-(thiazol-2-ylmethoxy)pyrimidin-2-amine] the IC50 [1, 5] was 26.1 nM and 5.9 nM and 30 nM and the IC50 ([2]; Homo sapiens) was 4 nM.

With `Cc1cc(-c2c(OCc3ccnc(OCCO)n3)nc(N)nc2-c2ccc(F)cc2)cc(C(F)F)n1` [Example 297, 2-((4-(((2-amino-5-(2-(difluoromethyl)-6-methylpyridin-4-yl)-6-(4-fluorophenyl)pyrimidin-4-yl)oxy)methyl)pyrimidin-2-yl)oxy)ethan-1-ol] the IC50 [1, 5] was 278 nM and 228 nM and the IC50 ([2]; Homo sapiens) was 521 nM.

For `Cc1cc(-c2c(OCc3cccc(OC(CO)CO)n3)nc(N)nc2-c2ccc(F)cc2)cc(C(F)F)n1` [Example 420], the IC50 [1, 3] was 122 nM and 112 nM and the IC50 [2, 4] was 55.7 nM.

In the case of `CCN(CC)C(=O)COc1nc(N)nc(-c2ccccc2)c1-c1cc(C)nc(C(F)(F)F)c1` [Example 3, 2-((2-amino-5-(2-methyl-6-(trifluoromethyl)pyridin-4-yl)-6-phenylpyrimidin-4-yl)oxy)-N,N-diethylacetamide], the IC50 ([1]; 293A-A2AR cells, 8 nM CGS, values separated by / are repeat determinations, read-out: cAMP (nM) 0.1% BSA, 8 nM CGS) is reported as 0.6 nM, the IC50 ([1]; 293A-A2AR cells, 1 uM CGS, values separated by / are repeat determinations, read-out: cAMP (nM) 0.1% BSA, 1 uM CGS) is reported as 69 nM and 24 nM and the IC50 ([2]; Homo sapiens, values separated by / are repeat determinations) is reported as 47 nM.

With `CNC(=O)NCc1cccc(COc2nc(N)nc(-c3ccc(F)cc3)c2-c2cc(C)nc(C(F)F)c2)n1` [Example 415, 1-((6-(((2-amino-5-(2-(difluoromethyl)-6-methylpyridin-4-yl)-6-(4-fluorophenyl)pyrimidin-4-yl)oxy)methyl)pyridin-2-yl)methyl)-3-methylurea] the IC50 [1, 3] was 97 nM and 152 nM and 129 nM and the IC50 [2, 4] was 16 nM.

Work on `Cc1cc(-c2c(OCc3cccc(CNCC(=O)N(C)C)n3)nc(N)nc2-c2ccc(F)cc2)cc(C(F)F)n1` [Example 437, 2-(((6-(((2-amino-5-(2-(difluoromethyl)-6-methylpyridin-4-yl)-6-(4-fluorophenyl)pyrimidin-4-yl)oxy)methyl)pyridin-2-yl)methyl)amino)-N,N-dimethylacetamide] yielded an IC50 [1, 3] of 282 nM and an IC50 [2, 4] of 232 nM.

With `Cc1cc(-c2c(OCc3cccc(C4(C(=O)O)CCC4)n3)nc(N)nc2-c2ccc(F)cc2)cc(C(F)F)n1` [Example 392, 1-(6-(((2-amino-5-(2-(difluoromethyl)-6-methylpyridin-4-yl)-6-(4-fluorophenyl)pyrimidin-4-yl)oxy)methyl)pyridin-2-yl)cyclobutane-1-carboxylic acid] the IC50 [1, 5] was 186 nM and 139 nM and 180 nM and 209 nM and the IC50 ([2]; Homo sapiens) was 353 nM.

In the case of `Cc1cc(-c2c(OCc3cccc(NC(CO)CO)n3)nc(N)nc2-c2ccc(F)cc2)cc(C(F)F)n1` [Example 442, 2-((6-(((2-amino-5-(2-(difluoromethyl)-6-methylpyridin-4-yl)-6-(4-fluorophenyl)pyrimidin-4-yl)oxy)methyl)pyridin-2-yl)amino)propane-1,3-diol], the IC50 [1, 3] is reported as 177 nM and the IC50 [2, 4] is reported as 208 nM.

For `CNC(=O)OCc1cccc(COc2nc(N)nc(-c3ccc(F)cc3)c2-c2cc(C)nc(C(F)F)c2)n1` [Example 425, (6-(((2-amino-5-(2-(difluoromethyl)-6-methylpyridin-4-yl)-6-(4-fluorophenyl)pyrimidin-4-yl)oxy)methyl)pyridin-2-yl)methyl methylcarbamate], the IC50 [1, 3] was 35 nM and 74 nM and 23 nM, the IC50 [2, 4] was 33.3 nM and the IC50 ([2]; replicate values separated by /) was 29 nM.

For `Cc1cc(-c2c(OCc3cccc([C@@H]4C[C@H]4C(=O)O)n3)nc(N)nc2-c2ccc(F)cc2)cc(C(F)F)n1` (relative stereo) [Example 353, (1,2-trans)-2-(6-(((2-amino-5-(2-(difluoromethyl)-6-methylpyridin-4-yl)-6-(4-fluorophenyl)pyrimidin-4-yl)oxy)methyl)pyridin-2-yl)cyclopropane-1-carboxylic acid], the IC50 [1, 5] was 1240 nM and the IC50 ([2]; Homo sapiens) was 374 nM.

`Cc1cc(-c2c(OCc3cccc(C(C)(C)C(=O)O)n3)nc(N)nc2-c2ccc(F)cc2)cc(C(F)(F)F)n1` [Example 385, 2-(6-(((2-amino-6-(4-fluorophenyl)-5-(2-methyl-6-(trifluoromethyl)pyridin-4-yl)pyrimidin-4-yl)oxy)methyl)pyridin-2-yl)-2-methylpropanoic acid] was tested, and the IC50 [1, 5] was 2330 nM and 1020 nM and the IC50 ([2]; Homo sapiens) was 1460 nM.

With `CNc1cccc(COc2nc(N)nc(-c3ccc(F)cc3)c2-c2cc(C)nc(C(F)F)c2)n1` [Example 379, 5-(2-(difluoromethyl)-6-methylpyridin-4-yl)-4-(4-fluorophenyl)-6-((6-(methylamino)pyridin-2-yl)methoxy)pyrimidin-2-amine] the IC50 [1, 5] was 230 nM and 119 nM and 72 nM, the IC50 [2] was 10.7 nM and the IC50 ([2]; Homo sapiens) was 13.1 nM.

With `CNCc1cccc(COc2nc(N)nc(-c3ccc(F)cc3)c2-c2cc(C)nc(C(F)F)c2)n1` [Example 403, 5-(2-(difluoromethyl)-6-methylpyridin-4-yl)-4-(4-fluorophenyl)-6-((6-((methylamino)methyl)pyridin-2-yl)methoxy)pyrimidin-2-amine] the IC50 [1, 3] was 249 nM and 322 nM and 311 nM and the IC50 [2, 4] was 108 nM.

`Cc1cc(-c2c(OCc3cccc(C4(C(=O)O)CC4)n3)nc(N)nc2-c2ccc(F)cc2)cc(C(F)F)n1` [Example 391, 1-(6-(((2-amino-5-(2-(difluoromethyl)-6-methylpyridin-4-yl)-6-(4-fluorophenyl)pyrimidin-4-yl)oxy)methyl)pyridin-2-yl)cyclopropane-1-carboxylic acid] was tested, and the IC50 [1, 5] was 1130 nM and 979 nM and the IC50 ([2]; Homo sapiens) was 602 nM.
